In patent US20260124197A1, “NOVEL HETEROBICYCLIC COMPOUND FOR INHIBITING YAP-TEAD INTERACTION AND PHARMACEUTICAL COMPOSITION COMPRISING SAME” (priority 2022, published 2026) one finds IC50 data, which are given here for 32 compounds.

The assay concerns TEAD transcriptional activity. Briefly: TEAD reporter activity inhibition test (luciferase reporter, MCF7 cell line). In kind it is cell-based. The settings on record: Homo sapiens; TEAD (GTIIC) firefly luciferase reporter MCF7 cell line, 24 hours, ONE-Glo luminescence. As for the experimental part: Experimental Example 1: TEAD Reporter Activity Inhibition Test
The ability of the synthetic compounds to inhibit TEAD target gene transcription was measured. This evaluation method measures the transcriptional activity of TEAD by measuring the luciferase luminescence expressed when TEAD binds to a target gene and activates transcription using the MCF7 cell line (BPS Bioscience, Inc., USA) in which a firefly luciferase reporter gene has been introduced into the specific binding structure of TEAD, GTIIC (5′-ACATTCCA-3′). Cell lines were cultured in MEM medium added with 10% FBS, 1% Penicillin/Streptomycin, 1% non-essential amino acids, 10 μg/ml insulin, and 400 μg/ml Geneticin, and Geneticin was excluded when testing for inhibition of TEAD reporter activity. […] cells/100 μl were dispensed into a white 96-well plate and cultured for 6 hours. 50 μl of the test compound diluted to 3× concentration was mixed into each well. After 24 hours of cell culture, the luciferase signal was measured by luminescence using the ONE-Glo luciferase assay system (Promega, E6120) following the manufacturer's protocol. The 50% inhibition value (IC50) for TEAD transcriptional activity was calculated using GraphPad Prism 9.
If the IC50 value is less than 100 nM, it is indicated as A, if it is at least 100 nM but less than 500 nM, it is indicated as B, and if it is 500 nM or more, it is indicated as C.
Background: In a reporter assay the amount or activity of a reporter protein is the signal.
The term IC50 denotes the point on the concentration scale where inhibition reaches its midpoint. High values mean a need for much substance, low ones inhibition by little substance. In turn, `CNS(=O)(=O)c1ccc2c(c1)c(-c1nccnc1C)cn2-c1ccc(C(F)(F)F)cc1` [Example 1, N-methyl-3-(3-methylpyrazin-2-yl)-1-(4-(trifluoromethyl)phenyl)-1H-indole-5-sulfonamide] had an IC50 not below 500 nM.

The compound `CNS(=O)(=O)c1ccc2c(c1)c(-c1ccn(C)n1)cn2-c1ccc(C(F)(F)F)cc1` [Example 3, N-methyl-3-(1-methyl-1H-pyrazol-3-yl)-1-(4-(trifluoromethyl)phenyl)-1H-indole-5-sulfonamide] yielded an IC50 of 100 to 500 nM.

`CNS(=O)(=O)c1ccc2c(c1)c(-c1cnn(C)c1)cn2-c1ccc(C(F)(F)F)cc1` [Example 4, N-methyl-3-(1-methyl-1H-pyrazol-4-yl)-1-(4-(trifluoromethyl)phenyl)-1H-indole-5-sulfonamide] displayed an IC50 of 100 to 500 nM.

Consider `CNS(=O)(=O)c1ccc2c(c1)c(-c1cn(C)cn1)cn2-c1ccc(OC(F)(F)F)cc1` [Example 5, N-methyl-3-(1-methyl-1H-imidazol-4-yl)-1-(4-(trifluoromethoxy)phenyl)-1H-indole-5-sulfonamide], for which the IC50 was 100 to 500 nM.

The compound `CNS(=O)(=O)c1ccc2c(c1)c(-c1cn(C(C)C)cn1)cn2-c1ccc(C(F)(F)F)cc1` [Example 6, 3-(1-isopropyl-1H-imidazol-4-yl)-N-methyl-1-(4-(trifluoromethyl)phenyl)-1H-indole-5-sulfonamide] gave an IC50 not below 500 nM.

Regarding `CCNS(=O)(=O)c1ccc2c(c1)c(-c1cn(C)cn1)cn2-c1ccc(C(F)(F)F)cc1` [Example 7, N-ethyl-3-(1-methyl-1H-imidazol-4-yl)-1-(4-(trifluoromethyl)phenyl)-1H-indole-5-sulfonamide], the concentration for half-maximal inhibition (IC50) lay within 100 to 500 nM.

As for `CNS(=O)(=O)c1ccc2c(c1)c(-c1ccc(C)s1)cn2-c1ccc(C(F)(F)F)cc1` [Example 9, N-methyl-3-(5-methylthiophen-2-yl)-1-(4-(trifluoromethyl)phenyl)-1H-indole-5-sulfonamide], the IC50 lay in the range of 100 to 500 nM.

Turning to `CNS(=O)(=O)c1ccc2c(c1)c(-c1cn(C)cn1)cn2-c1ccc(C(F)(F)F)cn1` [Example 12, N-methyl-3-(1-methyl-1H-imidazol-4-yl)-1-(5-(trifluoromethyl)pyridin-2-yl)-1H-indole-5-sulfonamide], the IC50 lay in the range of 100 to 500 nM.

On to `CNS(=O)(=O)c1ccc2c(c1)c(-c1cn(C)cn1)cn2-c1ccc(Cl)cc1` [Example 14, 1-(4-chlorophenyl)-N-methyl-3-(1-methyl-1H-imidazol-4-yl)-1H-indole-5-sulfonamide], for which the concentration for half-maximal inhibition (IC50) was 100 to 500 nM.

As for `CNS(=O)(=O)c1ccc2c(c1)c(-c1ccncc1)cn2-c1ccc(C(F)(F)F)cc1` [Example 15, N-methyl-3-(pyridin-4-yl)-1-(4-(trifluoromethyl)phenyl)-1H-indole-5-sulfonamide], the IC50 was 100 to 500 nM.

Consider `CNS(=O)(=O)c1ccc2c(c1)c(-c1ccccc1)cn2-c1ccc(C(F)(F)F)cc1` [Example 17, N-methyl-3-phenyl-1-(4-(trifluoromethyl)phenyl)-1H-indole-5-sulfonamide], for which the IC50 was in the range of 100 to 500 nM.

As to `CNS(=O)(=O)c1ccc2c(c1)c(-c1cn(C)cn1)cn2-c1ccc(C2CCCCC2)cc1` [Example 18, 1-(4-cyclohexylphenyl)-N-methyl-3-(1-methyl-1H-imidazol-4-yl)-1H-indole-5-sulfonamide], the IC50 was not below 500 nM.

For the compound `CN(C)S(=O)(=O)c1ccc2c(c1)c(-c1cn(C)cn1)cn2-c1ccc(C(F)(F)F)cc1` [Example 19, N,N-dimethyl-3-(1-methyl-1H-imidazol-4-yl)-1-(4-(trifluoromethyl)phenyl)-1H-indole-5-sulfonamide], the IC50 is not below 500 nM.

`CNS(=O)(=O)c1ccc2c(c1)c(-c1cn(C)cn1)cn2-c1cccc(C(F)(F)F)c1` [Example 21, N-methyl-3-(1-methyl-1H-imidazol-4-yl)-1-(3-(trifluoromethyl)phenyl)-1H-indole-5-sulfonamide] registered an IC50 of 100 to 500 nM.

`CNS(=O)(=O)c1ccc2c(c1)c(-c1cn(C)cn1)cn2-c1ccc(C#N)cc1` [Example 22, 1-(4-cyanophenyl)-N-methyl-3-(1-methyl-1H-imidazol-4-yl)-1H-indole-5-sulfonamide]: the IC50 is not below 500 nM.

For the compound `CNS(=O)(=O)c1ccc2c(c1)c(-c1ccc(C)o1)cn2-c1ccccc1` [Example 24, N-methyl-3-(5-methylfuran-2-yl)-1-phenyl-1H-indole-5-sulfonamide], the IC50 lay within 100 to 500 nM.

For the compound `CNS(=O)(=O)c1ccc2c(c1)c(-c1cccc(F)c1F)cn2-c1ccc(C(F)(F)F)cc1` [Example 25, 3-(2,3-difluorophenyl)-N-methyl-1-(4-(trifluoromethyl)phenyl)-1H-indole-5-sulfonamide], the IC50 was less than 100 nM.

Turning to `CNS(=O)(=O)c1ccc2c(c1)c(-c1cn(C)cn1)cn2-c1ccccc1` [Example 26, N-methyl-3-(1-methyl-1H-imidazol-4-yl)-1-phenyl-1H-indole-5-sulfonamide], the IC50 is not below 500 nM.

In the case of `CNS(=O)(=O)c1ccc2c(c1)c(-c1cn(C)cn1)cn2-c1ccc(C(F)(F)F)c(Cl)c1` [Example 27, 1-(3-chloro-4-(trifluoromethyl)phenyl)-N-methyl-3-(1-methyl-1H-imidazol-4-yl)-1H-indole-5-sulfonamide], the IC50 was less than 100 nM.

Compound `CNS(=O)(=O)c1ccc2c(c1)c(-c1c[nH]cn1)cn2-c1ccc(C(F)(F)F)cc1` [Example 29, 3-(1H-imidazol-4-yl)-N-methyl-1-(4-(trifluoromethyl)phenyl)-1H-indole-5-sulfonamide] had an IC50 of 100 to 500 nM.

On to `CNS(=O)(=O)c1ccc2c(c1)c(-c1cn(Cc3ccccc3F)cn1)cn2-c1ccc(C(F)(F)F)cc1` [Example 30, 3-(1-(2-fluorobenzyl)-1H-imidazol-4-yl)-N-methyl-1-(4-(trifluoromethyl)phenyl)-1H-indole-5-sulfonamide], for which the IC50 was less than 100 nM.

In turn, `CNS(=O)(=O)c1ccc2c(-c3cn(C)cn3)cn(-c3ccc(C(F)(F)F)cc3)c2c1` [Example 33, N-methyl-3-(1-methyl-1H-imidazol-4-yl)-1-(4-(trifluoromethyl)phenyl)-1H-indole-6-sulfonamide] came in with an IC50 of 100 to 500 nM.

`CNS(=O)(=O)c1ccc2c(c1)c(-c1ccc(C(F)(F)F)o1)cn2-c1ccc(C(F)(F)F)cc1` [Example 34, N-methyl-3-(5-(trifluoromethyl)furan-2-yl)-1-(4-(trifluoromethyl)phenyl)-1H-indole-5-sulfonamide] returned an IC50 of 100 to 500 nM.

Take `CNS(=O)(=O)c1ccc2c(c1)c(-c1cn(C3COC3)cn1)cn2-c1ccc(C(F)(F)F)cc1` [Example 35, N-methyl-3-(1-(oxetan-3-yl)-1H-imidazol-4-yl)-1-(4-(trifluoromethyl)phenyl)-1H-indole-5-sulfonamide]: the IC50 was 100 to 500 nM.

In turn, `CNS(=O)(=O)c1ccc2c(c1)c(-c1ccc(Cl)o1)cn2-c1ccc(C(F)(F)F)cc1` [Example 36, 3-(5-chlorofuran-2-yl)-N-methyl-1-(4-(trifluoromethyl)phenyl)-1H-indole-5-sulfonamide] yielded an IC50 of 100 to 500 nM.

Turning to `CNS(=O)(=O)c1ccc2c(c1)c(-c1cn(CC(F)(F)F)cn1)cn2-c1ccc(C(F)(F)F)cc1` [Example 37, N-methyl-3-(1-(2,2,2-trifluoroethyl)-1H-imidazol-4-yl)-1-(4-(trifluoromethyl)phenyl)-1H-indole-5-sulfonamide], the IC50 is less than 100 nM.

For the compound `CNS(=O)(=O)c1ccc2c(c1)c(-c1cn(C)cn1)cn2-c1ccc(C)cc1` [Example 39, N-methyl-3-(1-methyl-1H-imidazol-4-yl)-1-(p-tolyl)-1H-indole-5-sulfonamide], the IC50 lay within 100 to 500 nM.

Turning to `CNS(=O)(=O)c1ccc2c(c1)c(-c1cn(C)cn1)cn2-c1ccc(C(C)(C)C)cc1` [Example 40, 1-(4-(t-butyl)phenyl)-N-methyl-3-(1-methyl-1H-imidazol-4-yl)-1H-indole-5-sulfonamide], the IC50 was less than 100 nM.

In turn, `CNS(=O)(=O)c1ccc2c(c1)c(-c1cnco1)cn2-c1ccc(C(F)(F)F)cc1` [Example 41, N-methyl-3-(oxazol-5-yl)-1-(4-(trifluoromethyl)phenyl)-1H-indole-5-sulfonamide] registered an IC50 of 100 to 500 nM.

For `CNS(=O)(=O)c1ccc2c(c1)c(-c1cn3c(n1)CCC3)cn2-c1ccc(C(F)(F)F)cc1` [Example 45, 3-(6,7-dihydro-5H-pyrrolo[1,2-a]imidazol-2-yl)-N-methyl-1-(4-(trifluoromethyl)phenyl)-1H-indole-5-sulfonamide], the IC50 is less than 100 nM.

On to `CNS(=O)(=O)c1ccc2c(c1)c(N1CC(F)C1)cn2-c1ccc(C(F)(F)F)cc1` [Example 46, 3-(3-fluoroazetidin-1-yl)-N-methyl-1-(4-(trifluoromethyl)phenyl)-1H-indole-5-sulfonamide], for which the IC50 was less than 100 nM.

Turning to `CNS(=O)(=O)c1ccc2c(c1)c(-c1cn(CC(=O)N(C)C)cn1)cn2-c1ccc(C(F)(F)F)cc1` [Example 47, N,N-dimethyl-2-(4-(5-(N-methylsulfamoyl)-1-(4-(trifluoromethyl)phenyl)-1H-indol-3-yl)-1H-imidazole-1-yl) acetamide], the IC50 is not below 500 nM.
